The target in assay [1] is T1, human Nav1.7 (Homo sapiens, UniProt Q15858).
T1 construct: expressed in transfected cells
The assay can be described thus: PatchXpress sodium current measurement, inactivated state block, Nav1.7. Format: cell-based. To be noted: channels stably expressed in HEK 293 cells, double-pulse protocol, 22° C., read-out: potency for the Nav 1.7 sodium ion channel (1.7=). As for the experimental part:
(§1) Cell Based Assays for Nav 1.7 and Nav 1.5 Activity
(§2) Compounds were tested on human Nav1.7 and Nav1.5 channels stably expressed in HEK 293 cells.
(§3) Sodium Current Measurements on the PatchXpress 7000:
(§4) To measure inactivated state block of sodium channels, test compounds were characterized in an automated PatchXpress® assay (Molecular Devices) using a double-pulse protocol on human Nav1.7 and Nav1.5 channels stably expressed in HEK 293 cells. Cells were held at a potential 20 mV negative to the potential at which ˜50% of the channels are inactivated. A 8000 ms pre-pulse 7 mV positive to the potential at which ˜50% of the channels are inactivated was given followed by a hyperpolarizing 2 ms pulse to −120 mV and a 20 ms test pulse to −20 mV. The protocol was applied to cells in the absence, presence of compound and after washout. The temperature of PatchXpress® instruments was maintained at 22° C. The following recording solutions were used. Internal solution (mM): 30 CsCl, 5 HEPES, 10 EGTA, 120 CsF, 5 NaF, 2 MgCl2, pH 7.3 with CsOH. External solution (mM): 120 NMDG, 40 NaCl, 1 KCl, 0.5 MgCl2, 5 HEPES, 2.7 CaCl2, pH 7.5 with NMDG-OH. Estimated IC50 values were calculated based on at least two compound concentrations tested. For all electrophysiology experiments, offline analysis was used to correct for current rundown and to determine percent inhibition as a function of drug concentration. IC50 values were determined by fitting to the Hill equation.

In assay [2] the target is T2, human Nav1.5 (Homo sapiens, UniProt Q14524).
T2 construct: expressed in transfected cells
T2 sequence (Q14524 whole entry): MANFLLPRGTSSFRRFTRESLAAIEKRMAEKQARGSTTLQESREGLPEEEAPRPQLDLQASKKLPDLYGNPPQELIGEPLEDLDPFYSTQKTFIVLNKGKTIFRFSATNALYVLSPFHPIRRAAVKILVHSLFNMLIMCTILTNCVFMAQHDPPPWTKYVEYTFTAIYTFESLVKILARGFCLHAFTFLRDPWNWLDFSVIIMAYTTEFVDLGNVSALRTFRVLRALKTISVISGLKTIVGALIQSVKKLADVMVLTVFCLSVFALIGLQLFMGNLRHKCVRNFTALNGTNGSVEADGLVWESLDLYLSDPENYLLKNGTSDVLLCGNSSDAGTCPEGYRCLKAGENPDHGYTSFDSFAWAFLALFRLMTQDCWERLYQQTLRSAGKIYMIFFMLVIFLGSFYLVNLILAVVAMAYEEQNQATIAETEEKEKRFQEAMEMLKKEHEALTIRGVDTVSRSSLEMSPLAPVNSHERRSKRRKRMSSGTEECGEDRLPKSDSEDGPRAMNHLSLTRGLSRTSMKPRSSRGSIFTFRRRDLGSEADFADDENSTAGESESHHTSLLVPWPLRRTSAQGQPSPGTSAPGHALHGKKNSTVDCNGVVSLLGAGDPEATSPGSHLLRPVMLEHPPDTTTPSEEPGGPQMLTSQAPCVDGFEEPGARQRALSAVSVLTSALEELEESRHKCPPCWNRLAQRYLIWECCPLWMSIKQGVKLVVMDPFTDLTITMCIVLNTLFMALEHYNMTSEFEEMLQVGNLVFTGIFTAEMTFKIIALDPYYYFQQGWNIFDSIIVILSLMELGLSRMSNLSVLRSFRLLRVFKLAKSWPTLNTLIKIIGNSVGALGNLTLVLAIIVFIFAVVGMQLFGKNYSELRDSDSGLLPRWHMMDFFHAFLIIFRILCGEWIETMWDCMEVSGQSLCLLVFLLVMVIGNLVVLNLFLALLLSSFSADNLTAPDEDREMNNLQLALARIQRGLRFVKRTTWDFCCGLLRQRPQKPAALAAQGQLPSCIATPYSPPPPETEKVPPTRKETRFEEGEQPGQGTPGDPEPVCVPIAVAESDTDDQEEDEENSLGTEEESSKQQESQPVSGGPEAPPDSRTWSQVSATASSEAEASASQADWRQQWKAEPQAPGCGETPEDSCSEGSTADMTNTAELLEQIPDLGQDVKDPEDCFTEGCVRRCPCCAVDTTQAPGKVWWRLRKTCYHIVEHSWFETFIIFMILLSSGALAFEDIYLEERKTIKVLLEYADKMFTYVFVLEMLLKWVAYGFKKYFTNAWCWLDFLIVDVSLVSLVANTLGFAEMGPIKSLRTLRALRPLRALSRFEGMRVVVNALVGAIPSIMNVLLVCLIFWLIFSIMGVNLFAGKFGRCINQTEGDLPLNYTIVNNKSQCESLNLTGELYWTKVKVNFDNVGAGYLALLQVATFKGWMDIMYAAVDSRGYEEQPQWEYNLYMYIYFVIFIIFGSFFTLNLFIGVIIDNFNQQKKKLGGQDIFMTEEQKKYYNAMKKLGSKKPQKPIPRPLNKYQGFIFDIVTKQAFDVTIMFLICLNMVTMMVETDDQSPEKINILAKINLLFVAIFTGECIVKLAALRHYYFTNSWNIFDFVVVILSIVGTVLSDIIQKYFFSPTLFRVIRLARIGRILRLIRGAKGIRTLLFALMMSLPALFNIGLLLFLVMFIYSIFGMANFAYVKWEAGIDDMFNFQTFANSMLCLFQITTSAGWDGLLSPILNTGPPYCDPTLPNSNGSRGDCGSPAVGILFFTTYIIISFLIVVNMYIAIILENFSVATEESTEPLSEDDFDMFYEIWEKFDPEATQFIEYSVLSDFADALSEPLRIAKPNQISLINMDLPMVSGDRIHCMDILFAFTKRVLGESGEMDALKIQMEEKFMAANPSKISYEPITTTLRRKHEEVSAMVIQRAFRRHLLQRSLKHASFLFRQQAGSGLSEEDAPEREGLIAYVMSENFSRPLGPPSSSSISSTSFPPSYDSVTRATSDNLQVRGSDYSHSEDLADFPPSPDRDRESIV
The assay can be described thus: PatchXpress sodium current measurement, inactivated state block, Nav1.5. The assay is classed as cell-based. The conditions noted are these: determined by PatchXpress measurement, HEK 293 cells. As for the experimental part:
as §1, §2, §3, §4

Results on 10 compounds are retold here after patent US9624208B2, “Benzoxazolinone compounds with selective activity in voltage-gated sodium channels” (Merck Sharp & Dohme Corp., priority 2012, dated 2017).

T1 sequence (Q15858 whole entry): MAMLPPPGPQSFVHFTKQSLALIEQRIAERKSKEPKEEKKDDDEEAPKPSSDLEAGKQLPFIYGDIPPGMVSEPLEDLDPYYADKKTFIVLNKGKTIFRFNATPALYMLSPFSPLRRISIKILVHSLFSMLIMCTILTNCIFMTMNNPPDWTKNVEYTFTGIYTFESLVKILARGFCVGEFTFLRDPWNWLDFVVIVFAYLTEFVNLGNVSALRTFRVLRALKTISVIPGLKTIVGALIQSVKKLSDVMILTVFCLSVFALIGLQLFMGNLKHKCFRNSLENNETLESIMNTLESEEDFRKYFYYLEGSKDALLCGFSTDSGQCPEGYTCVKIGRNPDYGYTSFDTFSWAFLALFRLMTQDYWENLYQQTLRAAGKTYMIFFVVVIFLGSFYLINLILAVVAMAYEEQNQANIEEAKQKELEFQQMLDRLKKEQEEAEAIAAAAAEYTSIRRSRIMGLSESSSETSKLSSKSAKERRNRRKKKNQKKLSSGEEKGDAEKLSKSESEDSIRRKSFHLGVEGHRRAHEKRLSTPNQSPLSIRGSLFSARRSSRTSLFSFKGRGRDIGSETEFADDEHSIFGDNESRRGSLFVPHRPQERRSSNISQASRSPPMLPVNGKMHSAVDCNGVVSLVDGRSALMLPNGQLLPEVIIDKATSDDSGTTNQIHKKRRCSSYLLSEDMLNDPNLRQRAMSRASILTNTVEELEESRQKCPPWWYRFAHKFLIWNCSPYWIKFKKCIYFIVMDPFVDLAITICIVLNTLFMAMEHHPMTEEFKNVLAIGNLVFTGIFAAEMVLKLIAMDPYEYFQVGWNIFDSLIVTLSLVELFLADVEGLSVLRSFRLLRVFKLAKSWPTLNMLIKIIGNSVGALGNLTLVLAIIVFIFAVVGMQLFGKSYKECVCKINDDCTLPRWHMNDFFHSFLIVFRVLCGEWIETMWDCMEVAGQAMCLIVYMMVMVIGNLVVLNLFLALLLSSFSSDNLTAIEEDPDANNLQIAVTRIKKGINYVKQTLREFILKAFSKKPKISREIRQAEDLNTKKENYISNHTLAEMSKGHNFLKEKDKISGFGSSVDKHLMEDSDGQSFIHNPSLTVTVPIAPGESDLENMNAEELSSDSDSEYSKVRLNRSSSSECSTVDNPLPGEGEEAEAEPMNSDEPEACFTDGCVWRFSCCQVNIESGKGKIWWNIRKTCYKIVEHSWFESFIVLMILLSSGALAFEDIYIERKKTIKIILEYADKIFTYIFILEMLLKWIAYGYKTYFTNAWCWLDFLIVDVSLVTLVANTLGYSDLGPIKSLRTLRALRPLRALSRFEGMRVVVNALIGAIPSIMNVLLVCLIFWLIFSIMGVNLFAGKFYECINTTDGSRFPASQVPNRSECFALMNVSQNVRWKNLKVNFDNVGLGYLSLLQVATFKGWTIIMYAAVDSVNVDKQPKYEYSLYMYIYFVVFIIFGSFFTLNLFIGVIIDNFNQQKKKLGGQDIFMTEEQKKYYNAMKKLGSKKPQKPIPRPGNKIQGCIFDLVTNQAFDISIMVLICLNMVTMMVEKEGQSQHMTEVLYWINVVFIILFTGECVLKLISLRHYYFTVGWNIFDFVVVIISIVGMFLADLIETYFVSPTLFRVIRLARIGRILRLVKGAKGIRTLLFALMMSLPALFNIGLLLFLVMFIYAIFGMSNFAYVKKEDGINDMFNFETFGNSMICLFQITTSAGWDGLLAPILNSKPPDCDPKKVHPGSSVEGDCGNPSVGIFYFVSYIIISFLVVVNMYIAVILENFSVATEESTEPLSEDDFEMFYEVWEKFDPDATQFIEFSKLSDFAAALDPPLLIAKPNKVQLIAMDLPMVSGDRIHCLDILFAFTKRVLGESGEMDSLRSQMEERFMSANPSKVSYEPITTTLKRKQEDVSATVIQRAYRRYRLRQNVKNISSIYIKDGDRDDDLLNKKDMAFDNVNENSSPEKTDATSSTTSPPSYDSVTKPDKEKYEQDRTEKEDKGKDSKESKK

As to `Cc1cc2c(cc1S(=O)(=O)Nc1cccc(F)n1)oc(=O)n2[C@H](C)c1ccccc1N1CCNCC1` [Ex23-2, N-(6-fluoropyridin-2-yl)-5-methyl-2-oxo-3-{(1R)-1-[2-(piperazin-1-yl)phenyl]ethyl}-2,3-dihydro-1,3-benzoxazole-6-sulfonamide], the IC50 in assay [1] is 74 nM. For the same compound, the “ratio of Nav 1.5:Nav 1.7 potency” value in assay [2] amounted to 405.

Take `Cc1cccc([C@@H](C)n2c(=O)oc3cc(S(=O)(=O)Nc4cccc(F)n4)c(F)cc32)c1Br` [Ex14-4, 3-[(1R)-1-(2-Bromo-3-methylphenyl)ethyl]-5-fluoro-N-(6-fluoropyridin-2-yl)-2-oxo-2,3-dihydro-1,3-benzoxazole-6-sulfonamide]: the IC50 in assay [1] is 596 nM. Also, the “ratio of Nav 1.5:Nav 1.7 potency” value in assay [2] came to 27.

On to `C[C@H](c1cccc2c1CNCC2)n1c(=O)oc2cc(S(=O)(=O)Nc3ccc(F)cn3)c(F)cc21.Cl` [Ex15-5, (R)-5-Fluoro-N-(5-fluoropyridin-2-yl)-2-oxo-3-(1-(1,2,3,4-tetrahydroisoquinolin-8-yl)ethyl)-2,3-dihydrobenzo[d]oxazole-6-sulfonamide hydrochloride], for which, in assay [1], the IC50 was 535 nM. For the same compound, in assay [2], the “ratio of Nav 1.5:Nav 1.7 potency” value came to 108.

As for `C[C@H](c1ccccc1C1CN(S(C)(=O)=O)C1)n1c(=O)oc2cc(S(=O)(=O)Nc3cccc(F)n3)c(F)cc21` [Ex11-1], the IC50 in assay [1] is 213 nM. The “ratio of Nav 1.5:Nav 1.7 potency” value in assay [2] is 34.

On to `C[C@H](c1cccc(C#CC2CCCN2)c1)n1c(=O)oc2cc(S(=O)(=O)Nc3cccc(F)n3)c(F)cc21` (stereo partly drawn) [Ex21-10, 5-fluoro-N-(6-fluoropyridin-2-yl)-2-oxo-3-{(1R)-1-[3-(pyrrolidin-2-ylethynyl)phenyl]ethyl}-2,3-dihydro-1,3-benzoxazole-6-sulfonamide], for which, in assay [1], the IC50 worked out at 342 nM. In addition, the “ratio of Nav 1.5:Nav 1.7 potency” value in assay [2] was 88.

For the compound `Cc1cc2c(cc1S(=O)(=O)Nc1cccc(F)n1)oc(=O)n2[C@H](C)c1cccc(CCCN)c1` [Ex22-2, 3-{(1R)-1-[3-(3-amino-propyl)phenyl]ethyl}-N-(6-fluoropyridin-2-yl)-5-methyl-2-oxo-2,3-dihydro-1,3-benzoxazole-6-sulfonamide], the IC50 in assay [1] is 70 nM. The “ratio of Nav 1.5:Nav 1.7 potency” value in assay [2] came out at 305.

As for `C[C@H](c1cccc2c1CNCC2)n1c(=O)oc2cc(S(=O)(=O)Nc3cccc(F)n3)c(F)cc21.Cl` [Ex3-5, (R)-5-fluoro-N-(6-fluoropyridin-2-yl)-2-oxo-3-(1-(1,2,3,4-tetrahydroisoquinolin-8-yl)ethyl)-2,3-dihydrobenzo[d]oxazole-6-sulfonamide hydrochloride], the IC50 in assay [1] came to 99 nM. Besides, the “ratio of Nav 1.5:Nav 1.7 potency” value in assay [2] amounted to 158.

With `NC1CCc2cccc(Cn3c(=O)oc4cc(S(=O)(=O)Nc5cccc(F)n5)c(F)cc43)c2C1` (single isomer, unassigned) [Ex13-5, (R or S)-3-[(7-amino-5,6,7,8-tetrahydronaphthalen-1-yl)methyl]-5-fluoro-N-(6-fluoropyridin-2-yl)-2-oxo-2,3-dihydro-1,3-benzoxazole-6-sulfonamide], in assay [1], the IC50 is 40 nM. In addition, the “ratio of Nav 1.5:Nav 1.7 potency” value in assay [2] turned out to be 914.

Turning to `NC1CCc2cccc(Cn3c(=O)oc4cc(S(=O)(=O)Nc5cccc(F)n5)ccc43)c2C1` (single isomer, unassigned) [Ex13-6, (S or R)-3-[(7-amino-5,6,7,8-tetrahydronaphthalen-1-yl)methyl]-N-(6-fluoropyridin-2-yl)-2-oxo-2,3-dihydro-1,3-benzoxazole-6-sulfonamide], the IC50 in assay [1] amounted to 147 nM. For the same compound, the “ratio of Nav 1.5:Nav 1.7 potency” value in assay [2] was found to be 43.

On to `Cc1cccc([C@@H](C)n2c(=O)oc3cc(S(=O)(=O)Nc4cccc(F)n4)c(F)cc32)c1CN` [Ex19-1, 3-{(1R)-1-[2-(aminomethyl)-3-methylphenyl]ethyl}-5-fluoro-N-(6-fluoropyridin-2-yl)-2-oxo-2,3-dihydro-1,3-benzoxazole-6-sulfonamide], for which, in assay [1], the IC50 was determined as 9 nM. Moreover, the “ratio of Nav 1.5:Nav 1.7 potency” value in assay [2] came to 603.
